Assay results taken from US20230233569A1 (Revolution Medicines, Inc., priority 2020, published 2023).
“And” between values parts separate entries of the source, which are not always exact repeats. Equal entries are not always repeated. Where two headings read alike, the source gives them in different places.

Columns and labels:
KRAS G13D = KRAS G13D (Homo sapiens, UniProt P01116+P62937, G13D); experiment: Disruption of BRAF RBD interaction with Ras (FRET / MOA assay, with Cyclophilin A); format: biochemical
Chain of KRAS G13D (P01116 1-169 isoform P01116-2 G13D limits assumed): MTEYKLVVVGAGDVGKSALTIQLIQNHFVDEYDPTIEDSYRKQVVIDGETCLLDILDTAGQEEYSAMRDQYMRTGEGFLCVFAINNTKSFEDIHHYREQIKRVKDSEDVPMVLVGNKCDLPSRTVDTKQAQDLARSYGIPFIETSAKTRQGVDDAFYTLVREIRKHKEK
Chain of KRAS G13D (P62937 whole entry): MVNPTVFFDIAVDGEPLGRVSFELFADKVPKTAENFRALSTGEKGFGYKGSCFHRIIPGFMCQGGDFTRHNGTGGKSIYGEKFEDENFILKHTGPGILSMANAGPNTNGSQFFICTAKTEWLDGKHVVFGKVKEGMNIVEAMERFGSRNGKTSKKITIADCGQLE
Text: (§1) This protocol may also be executed substituting other Ras proteins or nucleotides.
(§2) The purpose of this biochemical assay was to measure the ability of test compounds to facilitate ternary complex formation between a nucleotide-loaded K-Ras isoform and Cyclophilin A; the resulting ternary complex disrupts binding to a BRAF^RBD construct, inhibiting K-Ras signaling through a RAF effector. Data is reported as IC50 values.
(§3) Compound was present in plate wells as a 10-point 3-fold dilution series starting at a final concentration of 30 μM. After incubation at 25° C. for 3 hours, a mixture of Anti-His Eu-W1024 and anti-GST allophycocyanin was then added to assay sample wells at final concentrations of 10 nM and 50 nM, respectively, and the reaction incubated for an additional 1.5 hours. […] Compounds that facilitate disruption of a K-Ras:RAF complex were identified as those eliciting a decrease in the TR-FRET ratio relative to DMSO control wells.
as §2, with “BRAF^RBDD” for “BRAF^RBD”

KRAS G13C = KRAS G13C (Homo sapiens, UniProt P01116+P62937, G13C); experiment: as above; format: biochemical
Chain of KRAS G13C (P01116 1-169 isoform P01116-2 G13C): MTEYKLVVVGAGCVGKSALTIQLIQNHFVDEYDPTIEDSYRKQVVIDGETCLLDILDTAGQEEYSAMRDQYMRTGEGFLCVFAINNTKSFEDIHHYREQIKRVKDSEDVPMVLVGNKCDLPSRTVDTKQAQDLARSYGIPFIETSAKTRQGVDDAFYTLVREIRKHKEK
Chain of KRAS G13C (P62937 whole entry): as the sequence (P62937 whole entry) above
Text: as §1, §2, §3
as §2, with “BRAF^RBDD” for “BRAF^RBD”

KRAS WT = KRAS WT (Homo sapiens, UniProt P01116+P62937); experiment: as above; format: biochemical
Chain of KRAS WT (P01116 1-169 isoform P01116-2 limits assumed): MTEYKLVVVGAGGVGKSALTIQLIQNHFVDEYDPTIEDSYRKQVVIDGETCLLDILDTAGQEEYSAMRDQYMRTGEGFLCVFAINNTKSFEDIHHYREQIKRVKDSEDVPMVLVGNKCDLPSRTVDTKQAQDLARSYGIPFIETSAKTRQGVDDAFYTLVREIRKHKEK
Chain of KRAS WT (P62937 whole entry): as the sequence (P62937 whole entry) above
Text: as §1, §2, §3
as §2, with “BRAF^RBDD” for “BRAF^RBD”

KRAS G12S = KRAS G12S (Homo sapiens, UniProt P01116+P62937, G12S); experiment: as above; format: biochemical
Chain of KRAS G12S (P01116 1-169 isoform P01116-2 G12S limits assumed): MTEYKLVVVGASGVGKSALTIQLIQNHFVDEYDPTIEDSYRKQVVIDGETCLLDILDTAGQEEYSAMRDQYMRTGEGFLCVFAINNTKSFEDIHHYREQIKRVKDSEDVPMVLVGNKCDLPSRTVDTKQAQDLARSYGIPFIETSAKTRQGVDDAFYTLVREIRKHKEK
Chain of KRAS G12S (P62937 whole entry): as the sequence (P62937 whole entry) above
Text: as §1, §2, §3
as §2, with “BRAF^RBDD” for “BRAF^RBD”

NRAS G12C = NRAS G12C (Homo sapiens, UniProt P01111+P62937, G12C); experiment: as above; format: biochemical
Chain of NRAS G12C (P01111 whole entry G12C): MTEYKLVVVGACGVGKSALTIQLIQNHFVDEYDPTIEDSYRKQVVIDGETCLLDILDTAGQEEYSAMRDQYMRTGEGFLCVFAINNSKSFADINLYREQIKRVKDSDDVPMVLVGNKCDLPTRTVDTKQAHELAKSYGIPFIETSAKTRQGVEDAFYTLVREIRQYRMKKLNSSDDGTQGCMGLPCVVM
Chain of NRAS G12C (P62937 whole entry): as the sequence (P62937 whole entry) above
Text: as §1, §2, §3
as §2, with “BRAF^RBDD” for “BRAF^RBD”

KRAS G12V = KRAS G12V (Homo sapiens, UniProt P01116+P62937, G12V); experiment: as above; format: biochemical
Chain of KRAS G12V (P01116 1-169 isoform P01116-2 G12V limits assumed): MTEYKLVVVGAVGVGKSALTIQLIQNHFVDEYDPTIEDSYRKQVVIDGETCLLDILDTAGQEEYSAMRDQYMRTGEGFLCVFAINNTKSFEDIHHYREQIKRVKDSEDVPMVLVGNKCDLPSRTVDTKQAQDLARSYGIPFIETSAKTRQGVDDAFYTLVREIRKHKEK
Chain of KRAS G12V (P62937 whole entry): as the sequence (P62937 whole entry) above
Text: as §1, §2, §3
as §2, with “BRAF^RBDD” for “BRAF^RBD”

KRAS G12C = KRAS G12C (Homo sapiens, UniProt P01116+P62937, G12C); experiment: as above; format: biochemical
Chain of KRAS G12C (P01116 1-169 isoform P01116-2 G12C): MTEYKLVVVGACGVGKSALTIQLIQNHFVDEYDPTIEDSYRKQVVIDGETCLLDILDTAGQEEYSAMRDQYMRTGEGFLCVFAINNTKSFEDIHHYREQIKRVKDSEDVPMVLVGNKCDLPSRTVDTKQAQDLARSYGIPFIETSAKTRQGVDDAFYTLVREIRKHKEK
Chain of KRAS G12C (P62937 whole entry): as the sequence (P62937 whole entry) above
Text: as §1, §2, §3
as §2, with “BRAF^RBDD” for “BRAF^RBD”

KRAS G12D = KRAS G12D (Homo sapiens, UniProt P01116+P62937, G12D); experiment: as above; format: biochemical
Chain of KRAS G12D (P01116 1-169 isoform P01116-2 G12D limits assumed): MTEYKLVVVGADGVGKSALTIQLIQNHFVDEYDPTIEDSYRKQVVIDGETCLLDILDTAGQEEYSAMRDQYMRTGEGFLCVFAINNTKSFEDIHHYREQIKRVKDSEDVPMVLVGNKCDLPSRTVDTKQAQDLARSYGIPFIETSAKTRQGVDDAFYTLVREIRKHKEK
Chain of KRAS G12D (P62937 whole entry): as the sequence (P62937 whole entry) above
Text: as §1, §2, §3
as §2, with “BRAF^RBDD” for “BRAF^RBD”

NCI-H358 (K-Ras G12C) = experiment: CellTiter-Glo cell viability assay, 5-day treatment; format: cell-based; conditions: Homo sapiens
How it was run: (§4)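 Compounds were dispensed directly onto seeded cells and incubated for 5 days, then plates were equilibrated to room temperature for about 30 minutes before luminescence reading. Signals were expressed as percent of the mean DMSO control and fitted with a four-parameter logistic curve.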

Capan-1 (K-Ras G12V) = experiment: as above; format: cell-based; conditions: Homo sapiens, CAPAN-1, 120 h, 5-day treatment; read-out: Capan-1 Cell Viability assay data (K-Ras G12V, IC50)
How it was run: as §4

[1] = KRAS G13D FRET data IC50, KRAS G13D
[2] = KRAS WT FRET data IC50, KRAS WT
[3] = NRAS G12C FRET data IC50, NRAS G12C
[4] = KRAS G12V FRET data IC50, KRAS G12V
[5] = NCI-H358, 120 h, 5-day treatment, read-out: H358 Cell Viability assay data (K-Ras G12C, IC50)
[6] = KRAS G13D, read-out: KRAS G13D FRET data IC50
[7] = KRAS WT, read-out: KRAS WT FRET data IC50
[8] = read-out: KRAS G12S FRET data, IC50
[9] = NRAS G12C, read-out: NRAS G12C FRET data IC50
[10] = KRAS G12V, read-out: KRAS G12V FRET data IC50
[11] = read-out: KRAS G12D FRET data, IC50

CCn1c(-c2cnccc2COC)c2c3cc(ccc31)-c1cc(O)cc(c1)C[C@H](NC(=O)[C@H](C(C)C)N(C)C(=O)[C@H]1CCN(C)C1)C(=O)N1CCC[C@H](N1)C(=O)OCC(C)(C)C2 [Example A27, (2S)—N-[(8S,14S)-22-ethyl-4-hydroxy-21-[4-(methoxymethyl)pyridin-3-yl]-18,18-dimethyl-9,15-dioxo-16-oxa-10,22,28-triazapentacyclo[18.5.2.1^2,6.1^10,14.0^23,27]nonacosa-1(26),2,4,6(29),20,23(27),24-heptaen-8-yl]-3-methyl-2-{N-methyl-1-[(3S)-1-methylpyrrolidin-3-yl]formamido}butanamide]
IC50 (KRAS G13D; [1]): 10 to 100 nM
IC50 (KRAS G13C; KRAS G13C FRET data, IC50): 10 to 100 nM
IC50 (KRAS WT; [2]): 100 to 1000 nM
IC50 (KRAS G12S; KRAS G12S FRET data, IC50): 100 to 1000 nM
IC50 (NRAS G12C; [3]): 100 to 1000 nM
IC50 (KRAS G12V; [4]): 1000 to 10000 nM
IC50 (KRAS G12C; KRAS G12C FRET data, IC50): 100 to 1000 nM
IC50 (KRAS G12D; KRAS G12D FRET data, IC50): 100 to 1000 nM
IC50 (NCI-H358 (K-Ras G12C); [5]): 1000 to 10000 nM

CCn1c(-c2cccnc2[C@H](C)OC)c2c3cc(ccc31)-c1csc(n1)C[C@H](NC(=O)[C@H](C(C)C)N(C)C(=O)N1CC(Cc3cnn(C)c3)C1)C(=O)N1CCC[C@H](N1)C(=O)OCC(C)(C)C2 [Example A500]
IC50 (Capan-1 (K-Ras G12V)): < 10 nM

C=CC(=O)N1CC[C@H](C(=O)N(C)[C@H](C(=O)N[C@H]2Cc3nc(cs3)-c3ccc4c(c3)c(c(-c3cccnc3[C@H](C)OC)n4CC)CC(C)(C)CN(C)C[C@@H]3CCCN(N3)C2=O)C(C)C)C1 [Example A287]
IC50 (KRAS G13D; [6]): > 10000 nM
IC50 (KRAS G13C; KRAS G13C, read-out: KRAS G13C FRET data IC50): > 10000 nM
IC50 (KRAS WT; [7]): > 10000 nM
IC50 (KRAS G12S; [8]): > 10000 nM
IC50 (NRAS G12C; [9]): > 10000 nM
IC50 (KRAS G12V; [10]): > 10000 nM
IC50 (KRAS G12C; KRAS G12C, read-out: KRAS G12C FRET data IC50): > 10000 nM
IC50 (KRAS G12D; [11]): > 10000 nM
IC50 (NCI-H358 (K-Ras G12C); NCI-H358, H358, K-Ras G12C, read-out: Additional H358 Cell Viability assay data (K-Ras G12C, IC50)): > 1000 nM

CCn1c(-c2cnccc2COC)c2c3cc(ccc31)-c1cc(O)cc(c1)C[C@H](NC(=O)[C@H](C(C)C)N(C)C(=O)[C@H]1CCN(CCO)C1)C(=O)N1CCC[C@H](N1)C(=O)OCC(C)(C)C2 [Example A23, (2S)—N-[(8S,14S)-22-ethyl-4-hydroxy-21-[4-(methoxymethyl)pyridin-3-yl]-18,18-dimethyl-9,15-dioxo-16-oxa-10,22,28-triazapentacyclo[18.5.2.1^2,6.1^10,14.0^23,27]nonacosa-1(26),2,4,6(29),20,23(27),24-heptaen-8-yl]-2-{1-[(3S)-1-(2-hydroxyethyl)pyrrolidin-3-yl]-N-methylformamido}-3-methylbutanamide]
IC50 (KRAS G13D; [1]): 10 to 100 nM
IC50 (KRAS G13C; KRAS G13C FRET data, IC50): 10 to 100 nM
IC50 (KRAS WT; [2]): 10 to 100 nM
IC50 (KRAS G12S; KRAS G12S FRET data, IC50): 100 to 1000 nM
IC50 (NRAS G12C; [3]): 100 to 1000 nM
IC50 (KRAS G12V; [4]): 1000 to 10000 nM
IC50 (KRAS G12C; KRAS G12C FRET data, IC50): 100 to 1000 nM
IC50 (KRAS G12D; KRAS G12D FRET data, IC50): 100 to 1000 nM
IC50 (NCI-H358 (K-Ras G12C); [5]): 1000 to 10000 nM

CCn1c(-c2cnccc2COC)c2c3cc(ccc31)-c1cc(O)cc(c1)C[C@H](NC(=O)[C@H](C(C)C)N(C)C(=O)[C@H]1CCN(C(=O)N(C)C)C1)C(=O)N1CCC[C@H](N1)C(=O)OCC(C)(C)C2 [Example A42, (3S)-N3-[(1S)-1-{[(8S,14S)-22-ethyl-4-hydroxy-21-[4-(methoxymethyl)pyridin-3-yl]-18,18-dimethyl-9,15-dioxo-16-oxa-10,22,28-triazapentacyclo[18.5.2.1^2,6.1^10,14.0^23,27]nonacosa-1(26),2,4,6(29),20,23(27),24-heptaen-8-yl]carbamoyl}-2-methylpropyl]-N1,N1,N3-trimethylpyrrolidine-1,3-dicarboxamide]
IC50 (KRAS G13D; [1]): 1000 to 10000 nM
IC50 (KRAS G13C; KRAS G13C FRET data, IC50): 1000 to 10000 nM
IC50 (KRAS WT; [2]): 1000 to 10000 nM
IC50 (KRAS G12S; KRAS G12S FRET data, IC50): 1000 to 10000 nM
IC50 (NRAS G12C; [3]): 1000 to 10000 nM
IC50 (KRAS G12V; [4]): 1000 to 10000 nM
IC50 (KRAS G12C; KRAS G12C FRET data, IC50): 100 to 1000 nM
IC50 (KRAS G12D; KRAS G12D FRET data, IC50): > 10000 nM
IC50 (NCI-H358 (K-Ras G12C); [5]): 1000 to 10000 nM

CCn1c(-c2cccnc2[C@H](C)OC)c2c3cc(ccc31)-c1csc(n1)C[C@H](NC(=O)[C@H](C(C)C)N1CCC3(CN(C)C3)C1=O)C(=O)N1CCC[C@H](N1)C(=O)OCC(C)(C)C2 [Example A222]
IC50 (NRAS G12C; [9]): > 10000 nM
IC50 (KRAS G12V; [10]): > 10000 nM
IC50 (Capan-1 (K-Ras G12V)): > 10000 nM

CCn1c(-c2cccnc2COC)c2c3cc(ccc31)-c1cc(O)cc(c1)C[C@H](NC(=O)[C@H](C(C)C)N(C)C(=O)[C@H]1CCN(C(=O)CN)C1)C(=O)N1CCC[C@H](N1)C(=O)OCC(C)(C)C2 [Example A12]
IC50 (KRAS G13D; [6]): 100 to 1000 nM and 1000 to 10000 nM
IC50 (KRAS G13D; read-out: FRET G13D IC50): 219 nM
IC50 (KRAS G13C; read-out: FRET G13C IC50): 148 nM
IC50 (KRAS G13C; read-out: KRAS G13C FRET data, IC50): 100 to 1000 nM and 1000 to 10000 nM
IC50 (KRAS WT; [7]): 100 to 1000 nM and 1000 to 10000 nM
IC50 (KRAS G12S; [8]): 100 to 1000 nM and 1000 to 10000 nM
IC50 (NRAS G12C; [9]): 1000 to 10000 nM
IC50 (KRAS G12V; [10]): 100 to 1000 nM and 1000 to 10000 nM
IC50 (KRAS G12V; read-out: FRET G12V IC50): 329 nM
IC50 (KRAS G12C; read-out: FRET G12C IC50): 68 nM
IC50 (KRAS G12C; read-out: KRAS G12C FRET data, IC50): 100 to 1000 nM and 10 to 100 nM
IC50 (KRAS G12D; read-out: FRET G12D IC50): 154 nM
IC50 (KRAS G12D; [11]): 100 to 1000 nM and 1000 to 10000 nM
IC50 (NCI-H358 (K-Ras G12C); NCI-H358, 120 h, 5-day treatment, read-out: H358 Cell Viability IC50): 4290 nM
